± gives the standard deviation of the averaged measurements.
Experiments:
NUTLIN3 = compound: COc1ccc(C2=N[C@@H](c3ccc(Cl)cc3)[C@@H](c3ccc(Cl)cc3)N2C(=O)N2CCNC(=O)C2)c(OC(C)C)c1 [NUTLIN3]; experiment: surviving fraction relative to DMSO-only wells; higher = less growth inhibition; settings: exposure time: 5 days
Method in brief: (§1)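 At 250–500 cells per well in 384-well plates, log-phase tumour cell lines were seeded and, 24 hours on, exposed continuously for five days to inhibitors at 0.5, 1, 5, 10, 50, 100, 500 and 1000 nM. Viability readout was CellTiter-Glo luminescence, reported as surviving fraction normalised to the median of DMSO-only wells.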

ABT-737 = compound: CN(C)CC[C@H](CSc1ccccc1)Nc1ccc(S(=O)(=O)NC(=O)c2ccc(N3CCN(Cc4ccccc4-c4ccc(Cl)cc4)CC3)cc2)cc1[N+](=O)[O-] [ABT-737]; experiment: as above; settings: exposure time: 5 days
Method in brief: as §1

HU09 BONE
surviving fraction (NUTLIN3; 0.5 nM): 1.03 ± 0.17 | surviving fraction (NUTLIN3; 1 nM): 0.933 ± 0.1 | surviving fraction (NUTLIN3; 5 nM): 1.02 ± 0.14 | surviving fraction (NUTLIN3; 10 nM): 1.03 ± 0.059 | surviving fraction (NUTLIN3; 50 nM): 1.04 ± 0.069 | surviving fraction (NUTLIN3; 100 nM): 1.08 ± 0.11 | surviving fraction (NUTLIN3; 500 nM): 1.04 ± 0.14 | surviving fraction (NUTLIN3; 1000 nM): 1.03 ± 0.085 | surviving fraction (ABT-737; 0.5 nM): 1.08 ± 0.08 | surviving fraction (ABT-737; 1 nM): 1.07 ± 0.12 | surviving fraction (ABT-737; 5 nM): 1.1 ± 0.0064 | surviving fraction (ABT-737; 10 nM): 1.06 ± 0.065 | surviving fraction (ABT-737; 50 nM): 0.988 ± 0.063 | surviving fraction (ABT-737; 100 nM): 0.912 ± 0.08 | surviving fraction (ABT-737; 500 nM): 0.697 ± 0.031 | surviving fraction (ABT-737; 1000 nM): 0.617 ± 0.027

SYO1 SYNOVIAL
surviving fraction (NUTLIN3; 0.5 nM): 1.01 ± 0.039 | surviving fraction (NUTLIN3; 1 nM): 0.997 ± 0.038 | surviving fraction (NUTLIN3; 5 nM): 0.993 ± 0.019 | surviving fraction (NUTLIN3; 10 nM): 0.979 ± 0.036 | surviving fraction (NUTLIN3; 50 nM): 0.977 ± 0.042 | surviving fraction (NUTLIN3; 100 nM): 0.934 ± 0.048 | surviving fraction (NUTLIN3; 500 nM): 0.588 ± 0.026 | surviving fraction (NUTLIN3; 1000 nM): 0.468 ± 0.012 | surviving fraction (ABT-737; 0.5 nM): 1.03 ± 0.048 | surviving fraction (ABT-737; 1 nM): 1.039 ± 0.01 | surviving fraction (ABT-737; 5 nM): 1.03 ± 0.07 | surviving fraction (ABT-737; 10 nM): 1.025 ± 0.0082 | surviving fraction (ABT-737; 50 nM): 1.04 ± 0.08 | surviving fraction (ABT-737; 100 nM): 0.984 ± 0.048 | surviving fraction (ABT-737; 500 nM): 0.752 ± 0.03 | surviving fraction (ABT-737; 1000 nM): 0.504 ± 0.024

S68 BREAST
surviving fraction (NUTLIN3; 0.5 nM): 0.854 ± 0.16 | surviving fraction (NUTLIN3; 1 nM): 0.785 ± 0.32 | surviving fraction (NUTLIN3; 5 nM): 0.92 ± 0.03 | surviving fraction (NUTLIN3; 10 nM): 0.976 ± 0.16 | surviving fraction (NUTLIN3; 50 nM): 1.28 ± 0.18 | surviving fraction (NUTLIN3; 100 nM): 0.99 ± 0.07 | surviving fraction (NUTLIN3; 500 nM): 0.936 ± 0.25 | surviving fraction (NUTLIN3; 1000 nM): 1.01 ± 0.22 | surviving fraction (ABT-737; 0.5 nM): 1.25 ± 0.083 | surviving fraction (ABT-737; 1 nM): 1.04 ± 0.045 | surviving fraction (ABT-737; 5 nM): 1.04 ± 0.28 | surviving fraction (ABT-737; 10 nM): 1.15 ± 0.047 | surviving fraction (ABT-737; 50 nM): 1.26 ± 0.41 | surviving fraction (ABT-737; 100 nM): 1.14 ± 0.27 | surviving fraction (ABT-737; 500 nM): 0.848 ± 0.25 | surviving fraction (ABT-737; 1000 nM): 0.822 ± 0.14

SKBR3 BREAST
surviving fraction (NUTLIN3; 0.5 nM): 0.795 ± 0.15 | surviving fraction (NUTLIN3; 1 nM): 1.01 ± 0.2 | surviving fraction (NUTLIN3; 5 nM): 0.869 ± 0.1 | surviving fraction (NUTLIN3; 10 nM): 0.844 ± 0.18 | surviving fraction (NUTLIN3; 50 nM): 0.952 ± 0.14 | surviving fraction (NUTLIN3; 100 nM): 0.8987 ± 0.0035 | surviving fraction (NUTLIN3; 500 nM): 0.91 ± 0.029 | surviving fraction (NUTLIN3; 1000 nM): 0.885 ± 0.077 | surviving fraction (ABT-737; 0.5 nM): 1.04 ± 0.035 | surviving fraction (ABT-737; 1 nM): 1.03 ± 0.07 | surviving fraction (ABT-737; 5 nM): 0.988 ± 0.13 | surviving fraction (ABT-737; 10 nM): 1.19 ± 0.13 | surviving fraction (ABT-737; 50 nM): 0.976 ± 0.071 | surviving fraction (ABT-737; 100 nM): 1.15 ± 0.09 | surviving fraction (ABT-737; 500 nM): 1.01 ± 0.14 | surviving fraction (ABT-737; 1000 nM): 1.13 ± 0.13

BT20 BREAST
surviving fraction (NUTLIN3; 0.5 nM): 1.1 ± 0.18 | surviving fraction (NUTLIN3; 1 nM): 1.11 ± 0.14 | surviving fraction (NUTLIN3; 5 nM): 1.09 ± 0.07 | surviving fraction (NUTLIN3; 10 nM): 1.01 ± 0.14 | surviving fraction (NUTLIN3; 50 nM): 1.05 ± 0.24 | surviving fraction (NUTLIN3; 100 nM): 1.07 ± 0.23 | surviving fraction (NUTLIN3; 500 nM): 1.15 ± 0.25 | surviving fraction (NUTLIN3; 1000 nM): 1.12 ± 0.18 | surviving fraction (ABT-737; 0.5 nM): 1.2 ± 0.061 | surviving fraction (ABT-737; 1 nM): 1.19 ± 0.089 | surviving fraction (ABT-737; 5 nM): 1.15 ± 0.06 | surviving fraction (ABT-737; 10 nM): 1.26 ± 0.06 | surviving fraction (ABT-737; 50 nM): 1.14 ± 0.14 | surviving fraction (ABT-737; 100 nM): 1.18 ± 0.13 | surviving fraction (ABT-737; 500 nM): 1.14 ± 0.043 | surviving fraction (ABT-737; 1000 nM): 1.07 ± 0.064

JIMT1 BREAST
surviving fraction (NUTLIN3; 0.5 nM): 0.985 ± 0.011 | surviving fraction (NUTLIN3; 1 nM): 0.976 ± 0.018 | surviving fraction (NUTLIN3; 5 nM): 1.01 ± 0.037 | surviving fraction (NUTLIN3; 10 nM): 0.9965 ± 0.0076 | surviving fraction (NUTLIN3; 50 nM): 1.08 ± 0.037 | surviving fraction (NUTLIN3; 100 nM): 1.06 ± 0.016 | surviving fraction (NUTLIN3; 500 nM): 1.06 ± 0.043 | surviving fraction (NUTLIN3; 1000 nM): 1.04 ± 0.018 | surviving fraction (ABT-737; 0.5 nM): 1.02 ± 0.048 | surviving fraction (ABT-737; 1 nM): 1.05 ± 0.016 | surviving fraction (ABT-737; 5 nM): 1.019 ± 0.0045 | surviving fraction (ABT-737; 10 nM): 1.018 ± 0.0065 | surviving fraction (ABT-737; 50 nM): 1.04 ± 0.037 | surviving fraction (ABT-737; 100 nM): 1.07 ± 0.06 | surviving fraction (ABT-737; 500 nM): 1.06 ± 0.054 | surviving fraction (ABT-737; 1000 nM): 1.08 ± 0.032

HCC1954 BREAST
surviving fraction (NUTLIN3; 0.5 nM): 1.17 ± 0.071 | surviving fraction (NUTLIN3; 1 nM): 1.16 ± 0.08 | surviving fraction (NUTLIN3; 5 nM): 1.11 ± 0.07 | surviving fraction (NUTLIN3; 10 nM): 1.01 ± 0.36 | surviving fraction (NUTLIN3; 50 nM): 1.22 ± 0.26 | surviving fraction (NUTLIN3; 100 nM): 1.14 ± 0.064 | surviving fraction (NUTLIN3; 500 nM): 1.15 ± 0.051 | surviving fraction (NUTLIN3; 1000 nM): 0.99 ± 0.036 | surviving fraction (ABT-737; 0.5 nM): 1.09 ± 0.11 | surviving fraction (ABT-737; 1 nM): 1.02 ± 0.092 | surviving fraction (ABT-737; 5 nM): 1.21 ± 0.047 | surviving fraction (ABT-737; 10 nM): 1.25 ± 0.033 | surviving fraction (ABT-737; 50 nM): 0.878 ± 0.17 | surviving fraction (ABT-737; 100 nM): 0.917 ± 0.26 | surviving fraction (ABT-737; 500 nM): 0.674 ± 0.15 | surviving fraction (ABT-737; 1000 nM): 0.564 ± 0.092

VP229 BREAST
surviving fraction (NUTLIN3; 0.5 nM): 1.16 ± 0.12 | surviving fraction (NUTLIN3; 1 nM): 1.08 ± 0.21 | surviving fraction (NUTLIN3; 5 nM): 1.21 ± 0.029 | surviving fraction (NUTLIN3; 10 nM): 0.944 ± 0.17 | surviving fraction (NUTLIN3; 50 nM): 0.972 ± 0.065 | surviving fraction (NUTLIN3; 100 nM): 1.04 ± 0.082 | surviving fraction (NUTLIN3; 500 nM): 1.13 ± 0.09 | surviving fraction (NUTLIN3; 1000 nM): 0.975 ± 0.037 | surviving fraction (ABT-737; 0.5 nM): 1.1 ± 0.09 | surviving fraction (ABT-737; 1 nM): 1.12 ± 0.06 | surviving fraction (ABT-737; 5 nM): 1.18 ± 0.11 | surviving fraction (ABT-737; 10 nM): 1.12 ± 0.049 | surviving fraction (ABT-737; 50 nM): 1.22 ± 0.11 | surviving fraction (ABT-737; 100 nM): 1.17 ± 0.11 | surviving fraction (ABT-737; 500 nM): 1.17 ± 0.017 | surviving fraction (ABT-737; 1000 nM): 1.13 ± 0.063

NOS1 BONE
surviving fraction (NUTLIN3; 0.5 nM): 1.14 ± 0.072 | surviving fraction (NUTLIN3; 1 nM): 0.978 ± 0.1 | surviving fraction (NUTLIN3; 5 nM): 1.142 ± 0.0078 | surviving fraction (NUTLIN3; 10 nM): 1.17 ± 0.16 | surviving fraction (NUTLIN3; 50 nM): 1.14 ± 0.071 | surviving fraction (NUTLIN3; 100 nM): 1.15 ± 0.1 | surviving fraction (NUTLIN3; 500 nM): 1.08 ± 0.042 | surviving fraction (NUTLIN3; 1000 nM): 1.08 ± 0.04 | surviving fraction (ABT-737; 0.5 nM): 1.07 ± 0.093 | surviving fraction (ABT-737; 1 nM): 1.05 ± 0.085 | surviving fraction (ABT-737; 5 nM): 1.32 ± 0.035 | surviving fraction (ABT-737; 10 nM): 1.14 ± 0.048 | surviving fraction (ABT-737; 50 nM): 1.19 ± 0.092 | surviving fraction (ABT-737; 100 nM): 1.14 ± 0.048 | surviving fraction (ABT-737; 500 nM): 1.09 ± 0.081 | surviving fraction (ABT-737; 1000 nM): 1.11 ± 0.17

SG31 HEADNECK
surviving fraction (NUTLIN3; 0.5 nM): 1.08 ± 0.067 | surviving fraction (NUTLIN3; 1 nM): 1.05 ± 0.2 | surviving fraction (NUTLIN3; 5 nM): 1.06 ± 0.12 | surviving fraction (NUTLIN3; 10 nM): 0.921 ± 0.035 | surviving fraction (NUTLIN3; 50 nM): 0.854 ± 0.13 | surviving fraction (NUTLIN3; 100 nM): 1.11 ± 0.23 | surviving fraction (NUTLIN3; 500 nM): 0.906 ± 0.038 | surviving fraction (NUTLIN3; 1000 nM): 0.92 ± 0.057 | surviving fraction (ABT-737; 0.5 nM): 1.2 ± 0.19 | surviving fraction (ABT-737; 1 nM): 1.51 ± 0.051 | surviving fraction (ABT-737; 5 nM): 1.08 ± 0.21 | surviving fraction (ABT-737; 10 nM): 1.04 ± 0.025 | surviving fraction (ABT-737; 50 nM): 1.03 ± 0.18 | surviving fraction (ABT-737; 100 nM): 1.2 ± 0.27 | surviving fraction (ABT-737; 500 nM): 1.27 ± 0.25 | surviving fraction (ABT-737; 1000 nM): 1.12 ± 0.11

OS25HAL BONE
surviving fraction (NUTLIN3; 0.5 nM): 0.975 ± 0.014 | surviving fraction (NUTLIN3; 1 nM): 0.998 ± 0.018 | surviving fraction (NUTLIN3; 5 nM): 0.979 ± 0.013 | surviving fraction (NUTLIN3; 10 nM): 0.974 ± 0.03 | surviving fraction (NUTLIN3; 50 nM): 1.06 ± 0.0081 | surviving fraction (NUTLIN3; 100 nM): 1.064 ± 0.0045 | surviving fraction (NUTLIN3; 500 nM): 1.052 ± 0.0056 | surviving fraction (NUTLIN3; 1000 nM): 1.06 ± 0.013 | surviving fraction (ABT-737; 0.5 nM): 0.984 ± 0.048 | surviving fraction (ABT-737; 1 nM): 1.07 ± 0.035 | surviving fraction (ABT-737; 5 nM): 0.975 ± 0.028 | surviving fraction (ABT-737; 10 nM): 1.02 ± 0.025 | surviving fraction (ABT-737; 50 nM): 1.06 ± 0.082 | surviving fraction (ABT-737; 100 nM): 1.12 ± 0.042 | surviving fraction (ABT-737; 500 nM): 0.983 ± 0.045 | surviving fraction (ABT-737; 1000 nM): 0.882 ± 0.076

From the supplement of paper PMC6045584
